How the values were obtained:
S. aureus = experiment: MIC by broth dilution, S. aureus; format: cell-based; settings: Staphylococcus aureus; Mueller-Hinton broth, overnight 37° C.; Table 1; read-out: MIC (μg/mL) S. aureus
Experimental: (§1) The antibacterial efficacy of the ammonium compounds was assessed. Minimum inhibitory concentrations (MICs) were determined by broth dilution method. Dilutions of each compound, ranging from 1 μg/mL to 256 μg/mL (final concentrations) were prepared in Mueller-Hinton broth. Compound dilutions were added to wells of a 96-well plate, with the concentration of the compound increasing 2-fold by row. Each well contained 5×10^5 CFU/ml of target bacterium in a total volume of 100 μl. Plates were incubated overnight at 37° C. The following day, plates were evaluated for a visual change in growth to determine the MIC. The concentration value corresponding to the first row that no longer had visible bacterial growth, as evaluated by turbidity in the wells, was recorded as the MIC. MIC values were representative of at least biological duplicates, each made up of technical triplicates. The antibacterial efficacy of ammonium compounds in the presence of human plasma was assessed. Minimum inhibitory concentrations (MICs) were determined by broth dilution method. Dilutions of each compound, ranging from 1 μg/mL to 256 μg/mL (final concentrations) were prepared in Mueller-Hinton broth. For the plasma containing samples, compound dilutions were made in Mueller-Hinton broth and supplemented with 5% (final %) human plasma (esterases). Compound dilutions were added to wells of a 96-well plate, with the concentration of the compound increasing 2-fold by row. Each well contained 5×10^5 CFU/mL of target bacterium in a total volume of 100 μL. Plates were incubated overnight at 37° C. The following day, plates were evaluated for a visual change in growth to determine the MIC. The concentration value corresponding to the first row that no longer had visible bacterial growth, as evaluated by turbidity in the wells, was recorded as the MIC. MIC values were representative of at least biological duplicates, each made up of technical triplicates.

A. baumannii = experiment: MIC by broth dilution, A. baumannii; format: cell-based; settings: Acinetobacter baumannii; Mueller-Hinton broth, overnight 37° C.; Table 1; read-out: MIC (μg/mL) A. baumannii
Experimental: as §1

| Structure (SMILES) | MIC (S. aureus) [µg/mL] | MIC (A. baumannii) [µg/mL] |
| --- | --- | --- |
| CCCCCCCCOc1ccccc1C(=O)Nc1cccc(C(=O)OCC[N+](C)(CC)CC)c1.[Br-] [Compound 12, N,N-Diethyl-N-methyl-2-((3-(2-(octyloxy)benzamido)benzoyl)oxy)ethan-1-aminium bromide] | 3 to 30 | > 30 |
| CCCCCCCCOc1ccccc1C(=O)Nc1ccccc1C(=O)OCC[N+](C)(CC)CC.[Br-] [Compound 13, N,N-Diethyl-N-methyl-2-((2-(2-(octyloxy)benzamido)benzoyl)oxy)ethan-1-aminium bromide] | 3 to 30 | > 30 |
| CCCCCCCCOc1cccc(C(=O)Nc2ccc(C(=O)OCC[N+](C)(CC)CC)cc2)c1OCCCCCCCC.[Br-] [Compound 14, 2-((4-(2,3-Bis(octyloxy)benzamido)benzoyl)oxy)-N,N-diethyl-N-methylethan-1-aminium bromide] | > 30 | > 30 |
| CCCCCCCCOc1ccc(C(=O)Nc2ccc(C(=O)OCC[N+](C)(CC)CC)cc2)c(OCCCCCCCC)c1.[Br-] [Compound 15, 2-((4-(2,4-Bis(octyloxy)benzamido)benzoyl)oxy)-N,N-diethyl-N-methylethan-1-aminium bromide] | > 30 | > 30 |
| CCCCCCCCOc1ccc(OCCCCCCCC)c(C(=O)Nc2ccc(C(=O)OCC[N+](C)(CC)CC)cc2)c1.[Br-] [Compound 16, 2-((4-(2,5-Bis(octyloxy)benzamido)benzoyl)oxy)-N,N-diethyl-N-methylethan-1-aminium bromide] | > 30 | > 30 |
| CCCCCCCCOc1cc(OCCCCCCCC)cc(C(=O)Nc2ccc(C(=O)OCC[N+](C)(CC)CC)cc2)c1.[Br-] [Compound 18, 2-((4-(3,5-Bis(octyloxy)benzamido)benzoyl)oxy)-N,N-diethyl-N-methylethan-1-aminium bromide] | > 30 | > 30 |
| CCCCOc1ccccc1C(=O)Nc1ccc(C(=O)OCC[N+](C)(CC)CC)cc1.[Br-] [Compound 19, 2-((4-(2-Butoxybenzamido)benzoyl)oxy)-N,N-diethyl-N-methylethan-1-aminium bromide] | > 30 | > 30 |
| CCCCCOc1ccccc1C(=O)Nc1ccc(C(=O)OCC[N+](C)(CC)CC)cc1.[Br-] [Compound 20, N,N-Diethyl-N-methyl-2-((4-(2-(pentyloxy)benzamido)benzoyl)oxy)ethan-1-aminium bromide] | > 30 | > 30 |
| CCCCCCOc1ccccc1C(=O)Nc1ccc(C(=O)OCC[N+](C)(CC)CC)cc1.[Br-] [Compound 21, N,N-Diethyl-2-((4-(2-(hexyloxy)benzamido)benzoyl)oxy)-N-methylethan-1-aminium bromide] | 3 to 30 | > 30 |
| CCCCCCCOc1ccccc1C(=O)Nc1ccc(C(=O)OCC[N+](C)(CC)CC)cc1.[Br-] [Compound 22, N,N-Diethyl-2-((4-(2-(heptyloxy)benzamido)benzoyl)oxy)-N-methylethan-1-aminium bromide] | 3 to 30 | > 30 |
| CCCCCCCCCCCOc1ccccc1C(=O)Nc1ccc(C(=O)OCC[N+](C)(CC)CC)cc1.[Br-] [Compound 25, N,N-Diethyl-N-methyl-2-((4-(2-(undecyloxy)benzamido)benzoyl)oxy)ethan-1-aminium bromide] | 3 to 30 | > 30 |
| CCCCCCCCCCCCOc1ccccc1C(=O)Nc1ccc(C(=O)OCC[N+](C)(CC)CC)cc1.[Br-] [Compound 26, 2-((4-(2-(Dodecyloxy)benzamido)benzoyl)oxy)-N,N-diethyl-N-methylethan-1-aminium bromide] | 3 to 30 | > 30 |
| CCCCCCCCCCCCCOc1ccccc1C(=O)Nc1ccc(C(=O)OCC[N+](C)(CC)CC)cc1.[Br-] [Compound 27, N,N-Diethyl-N-methyl-2-((4-(2-(tridecyloxy)benzamido)benzoyl)oxy)ethan-1-aminium bromide] | < 3 | > 30 |
| CCCCCCCCCCCCCCOc1ccccc1C(=O)Nc1ccc(C(=O)OCC[N+](C)(CC)CC)cc1.[Br-] [Compound 28, N,N-Diethyl-N-methyl-2-((4-(2-(tetradecyloxy)benzamido)benzoyl)oxy)ethan-1-aminium bromide] | 3 to 30 | > 30 |
| CCCCCCCCC[N+](CC)(CC)CCOC(=O)c1ccc(NC(=O)c2ccccc2OCCCCCCCC)cc1.[Br-] [Compound 30, N,N-Diethyl-N-(2-((4-(2-(octyloxy)benzamido)benzoyl)oxy)ethyl)nonan-1-aminium bromide] | 3 to 30 | > 30 |
| CCCCCCCCOc1ccc(C(=O)Nc2ccc(C(=O)OCC[N+](C)(CC)CC)cc2)cc1.[Br-] [Compound 31, N,N-Diethyl-N-methyl-2-((4-(4-(octyloxy)benzamido)benzoyl)oxy)ethan-1-aminium bromide] | > 30 | > 30 |
| CCCCCCCCOc1cccc(C(=O)Nc2ccc(C(=O)OCC[N+](C)(CC)CC)cc2)c1.[Br-] [Compound 32, N,N-Diethyl-N-methyl-2-((4-(3-(octyloxy)benzamido)benzoyl)oxy)ethan-1-aminium bromide] | 3 to 30 | > 30 |
| CCCCCCCCOc1ccccc1C(=O)Nc1ccc(C(=O)OCC[N+](CC)(CC)Cc2ccc([N+](=O)[O-])cc2)cc1.[Br-] [Compound 39, N,N-Diethyl-N-(4-nitrobenzyl)-2-((4-(2-(octyloxy)benzamido)benzoyl)oxy)ethan-1-aminium bromide] | 3 to 30 | > 30 |
| CCCCCCCCOc1ccccc1C(=O)Nc1ccc(C(=O)OCC[N+](CC)(CC)Cc2cccc(C(F)(F)F)c2)cc1.[Br-] [Compound 40, N,N-Diethyl-2-((4-(2-(octyloxy)benzamido)benzoyl)oxy)-N-(3-(trifluoromethyl)-benzyl)ethan-1-aminium bromide] | < 3 | > 30 |

The next lines start with the values.

| MIC (S. aureus) [µg/mL] | MIC (A. baumannii) [µg/mL] | Structure (SMILES) |
| --- | --- | --- |
| 3 to 30 | 3 to 30 | CCCCCCCCOc1ccccc1C(=O)Nc1ccc(C(=O)OCC[N+](C)(CC)CC)cc1.[Br-] [Compound 10, N,N-diethyl-N-methyl-2-((4-(2-(octyloxy)benzamido)benzoyl)oxy)ethan-1-aminium bromide, reference compound] |
| 3 to 30 | 3 to 30 | CCCCCCCCCOc1ccccc1C(=O)Nc1ccc(C(=O)OCC[N+](C)(CC)CC)cc1.[Br-] [Compound 23, N,N-Diethyl-N-methyl-2-((4-(2-(nonyloxy)benzamido)benzoyl)oxy)ethan-1-aminium bromide] |
| 3 to 30 | > 30 | CCCCCCCCCCOc1ccccc1C(=O)Nc1ccc(C(=O)OCC[N+](C)(CC)CC)cc1.[Br-] [Compound 24, 2-((4-(2-(Decyloxy)benzamido)benzoyl)oxy)-N,N-diethyl-N-methylethan-1-aminium bromide] |
| 3 to 30 | > 30 | CCCCCCCCOc1ccccc1C(=O)Nc1ccc(C(=O)OCC[N+](CC)(CC)CC)cc1.[Br-] [Compound 29, N,N,N-Triethyl-2-((4-(2-(octyloxy)benzamido)benzoyl)oxy)ethan-1-aminium bromide] |
| < 3 | 3 to 30 | CCCCCCCCOc1ccccc1C(=O)Nc1ccc(C(=O)OCC[N+](CC)(CC)CCC)cc1.[Br-] [Compound 33, N,N-Diethyl-N-(2-((4-(2-(octyloxy)benzamido)benzoyl)oxy)ethyl)propan-1-aminium bromide] |
| < 3 | 3 to 30 | CCCCCCCCOc1ccccc1C(=O)Nc1ccc(C(=O)OCC[N+](CC)(CC)CCCC)cc1.[Br-] [Compound 34, N,N-Diethyl-N-(2-((4-(2-(octyloxy)benzamido)benzoyl)oxy)ethyl)butan-1-aminium bromide] |
| < 3 | 3 to 30 | CCCCCCCCOc1ccccc1C(=O)Nc1ccc(C(=O)OCC[N+](CC)(CC)CCCCC)cc1.[Br-] [Compound 35, N,N-Diethyl-N-(2-((4-(2-(octyloxy)benzamido)benzoyl)oxy)ethyl)pentan-1-aminium bromide] |
| < 3 | 3 to 30 | CCCCCCCCOc1ccccc1C(=O)Nc1ccc(C(=O)OCC[N+](CC)(CC)CCCCCC)cc1.[Br-] [Compound 36, N,N-Diethyl-N-(2-((4-(2-(octyloxy)benzamido)benzoyl)oxy)ethyl)hexan-1-aminium bromide] |
| < 3 | 3 to 30 | CCCCCCCCOc1ccccc1C(=O)Nc1ccc(C(=O)OCC[N+](CC)(CC)CCCCCCC)cc1.[Br-] [Compound 37, N,N-Diethyl-N-(2-((4-(2-(octyloxy)benzamido)benzoyl)oxy)ethyl)heptan-1-aminium bromide] |
| < 3 | > 30 | CCCCCCCCOc1ccccc1C(=O)Nc1ccc(C(=O)OCC[N+](CC)(CC)CCCCCCCC)cc1.[Br-] [Compound 38, N,N-Diethyl-N-(2-((4-(2-(octyloxy)benzamido)benzoyl)oxy)ethyl)octan-1-aminium bromide] |
